Results from patent US20230082430A1 (C4 Therapeutics, Inc., priority 2019, published 2023).
pIC50: −log10 of the molar value. Counter-ions that a name gives are not always drawn.

system: NCIH929.1 cells; assay: Cell viability assay for Table 2 (CellTiter-Glo 2.0, ATP quantification, 96 hr); format: cell-based; details: 96 h, NCIH929.1 cell viability, 96 hr, top concentration 1 μM, 14 points half log titration; read-out: IC50
From the text: Cell Viability Assay for Table 2
CellTiter-Glo® 2.0 Assay was purchased from Promega (Madison, Wis., USA). NCIH929.1 cell line was purchased from ATCC (Manassas, Va., USA). Cell culture flasks and 384-well microplates were acquired from VWR (Radnor, Pa., USA).

Structure (SMILES) | pIC50
O=C1CCC(N2C(=O)c3cccc4c(Cc5cnn(C6CCN(CC7(F)CC7)CC6)c5)ccc2c34)C(=O)N1 (stereo not shown) [Compound 65, 3-(6-((1-(1-((1-fluorocyclopropyl)methyl)piperidin-4-yl)-1H-pyrazol-4-yl)methyl)-2-oxobenzo[cd]indol-1(2H)-yl)piperidine-2,6-dione] | > 9.00
COC1(CN2CCC(n3cc(Cc4ccc5c6c(cccc46)C(=O)N5C4CCC(=O)NC4=O)cn3)CC2)CC1 (stereo not shown) [Compound 66, 3-(6-((1-(1-((1-methoxycyclopropyl)methyl)piperidin-4-yl)-1H-pyrazol-4-yl)methyl)-2-oxobenzo[cd]indol-1(2H)-yl)piperidine-2,6-dione] | > 9.00
CC1(n2cc(Cc3ccc4c5c(cccc35)C(=O)N4C3CCC(=O)NC3=O)cn2)CCNCC1 (stereo not shown) [Compound 69, 3-(6-((1-(4-methylpiperidin-4-yl)-1H-pyrazol-4-yl)methyl)-2-oxobenzo[cd]indol-1(2H)-yl)piperidine-2,6-dione hydrochloride] | > 7.00
CC1(n2cc(Cc3ccc4c5c(cccc35)C(=O)N4C3CCC(=O)NC3=O)cn2)CCN(C(=O)C23C4C5C6C4C2C6C53)CC1 (stereo not drawn) [Compound 70, 3-(6-((1-(l-(cubane-1-carbonyl)-4-methylpiperidin-4-yl)-1H-pyrazol-4-yl)methyl)-2-oxobenzo[cd]indol-1(2H)-yl)piperidine-2,6-dione] | > 9.00
CC1(n2cc(Cc3ccc4c5c(cccc35)C(=O)N4C3CCC(=O)NC3=O)cn2)CCN(C(=O)C23COC(C2)C3)CC1 (stereo not shown) [Compound 71, 3-(6-{1-[4-Methyl-1-(2-oxa-bicyclo[2.1.1]hexane-4-carbonyl)-piperidin-4-yl]-1H-pyrazol-4-ylmethyl}-2-oxo-2H-benzo[cd]indol-1-yl)-piperidine-2,6-dione] | > 9.00
CC1(n2cc(Cc3ccc4c5c(cccc35)C(=O)N4C3CCC(=O)NC3=O)cn2)CCN(C(=O)C2(C#N)CCCCC2)CC1 (stereo not shown) [Compound 72, 1-(4-(4-((1-(2,6-dioxopiperidin-3-yl)-2-oxo-1,2-dihydrobenzo[cd]indol-6-yl)methyl)-1H-pyrazol-1-yl)-4-methylpiperidine-1-carbonyl)cyclohexane-1-carbonitrile] | > 9.00
CC1(n2cc(Cc3ccc4c5c(cccc35)C(=O)N4C3CCC(=O)NC3=O)cn2)CCN(C(=O)C23CCN(CC2)CC3)CC1 (stereo not drawn) [Compound 73, 3-(6-((l-(4-methyl-1-(quinuclidine-4-carbonyl)piperidin-4-yl)-1H-pyrazol-4-yl)methyl)-2-oxobenzo[cd]indol-1(2H)-yl)piperidine-2,6-dione] | > 7.00
CC1(n2cc(Cc3ccc4c5c(cccc35)C(=O)N4C3CCC(=O)NC3=O)cn2)CCN(C(=O)C23CCN(CC2)C3)CC1 (stereo not shown) [Compound 74, 3-(6-((1-(1-(1-azabicydo[2.2.1]heptane-4-carbonyl)-4-methylpiperidin-4-yl)-1H-pyrazol-4-yl)methyl)-2-oxobenzo[cd]indol-1(2H)-yl)piperidine-2,6-dione] | > 7.00
CC(=O)N1CCC(C)(n2cc(Cc3ccc4c5c(cccc35)C(=O)N4C3CCC(=O)NC3=O)cn2)CC1 (stereo not shown) [Compound 75, 3-(6-((1-(1-acetyl-4-methylpiperidin-4-yl)-1H-pyrazol-4-yl)methyl)-2-oxobenzo[cd]indol-1(2H)-yl)piperidine-2,6-dione] | > 9.00
CC1(n2cc(Cc3ccc4c5c(cccc35)C(=O)N4C3CCC(=O)NC3=O)cn2)CCN(C(=O)C2(C(F)F)CC2)CC1 (stereo not shown) [Compound 76, 3-(6-((1-(1-(1-(difluoromethyl)cyclopropane-1-carbonyl)-4-methylpiperidin-4-yl)-1H-pyrazol-4-yl)methyl)-2-oxobenzo[cd]indol-1(2H)-yl)piperidine-2,6-dione] | > 9.00
CC1(n2cc(Cc3ccc4c5c(cccc35)C(=O)N4C3CCC(=O)NC3=O)cn2)CCN(C(=O)C2(C(F)(F)F)CC2)CC1 (stereo not shown) [Compound 77, 3-(6-((1-(4-methyl-1-(1-(trifluoromethyl)cyclopropane-1-carbonyl)piperidin-4-yl)-1H-pyrazol-4-yl)methyl)-2-oxobenzo[cd]indol-1(2H)-yl)piperidine-2,6-dione] | > 9.00
CC1(n2cc(Cc3ccc4c5c(cccc35)C(=O)N4C3CCC(=O)NC3=O)cn2)CCN(C(=O)C2(C(F)(F)F)CCC2)CC1 (stereo not shown) [Compound 78, 3-(6-((1-(4-methyl-1-(1-(trifluoromethyl)cyclobutane-1-carbonyl)piperidin-4-yl)-1H-pyrazol-4-yl)methyl)-2-oxobenzo[cd]indol-1(2H)-yl)piperidine-2,6-dione] | > 9.00
CC1(n2cc(Cc3ccc4c5c(cccc35)C(=O)N4C3CCC(=O)NC3=O)cn2)CCN(C(=O)C2(C#N)CC2)CC1 (stereo not shown) [Compound 79, 1-(4-(4-((1-(2,6-dioxopiperidin-3-yl)-2-oxo-1,2-dihydrobenzo[cd]indol-6-yl)methyl)-1H-pyrazol-1-yl)-4-methylpiperidine-1-carbonyl)cyclopropane-1-carbonitrile] | > 9.00
CC(C)(C#N)C(=O)N1CCC(C)(n2cc(Cc3ccc4c5c(cccc35)C(=O)N4C3CCC(=O)NC3=O)cn2)CC1 (stereo not shown) [Compound 80, 3-(4-(4-((1-(2,6-dioxopiperidin-3-yl)-2-oxo-1,2-dihydrobenzo[cd]indol-6-yl)methyl)-1H-pyrazol-1-yl)-4-methylpiperidin-1-yl)-2,2-dimethyl-3-oxopropanenitrile] | > 9.00
CC1(C(=O)N2CCC(C)(n3cc(Cc4ccc5c6c(cccc46)C(=O)N5C4CCC(=O)NC4=O)cn3)CC2)CCOCC1 (stereo not shown) [Compound 81, 3-(6-((1-(4-methyl-1-(4-methyltetrahydro-2H-pyran-4-carbonyl)piperidin-4-yl)-1H-pyrazol-4-yl)methyl)-2-oxobenzo[cd]indol-1(2H)-yl)piperidine-2,6-dione] | > 9.00
CC1(n2cc(Cc3ccc4c5c(cccc35)C(=O)N4C3CCC(=O)NC3=O)cn2)CCN(C(=O)C(C)(C)C(F)(F)F)CC1 (stereo not shown) [Compound 82, 3-(6-((1-(4-methyl-1-(3,3,3-trifluoro-2,2-dimethylpropanoyl)piperidin-4-yl)-1H-pyrazol-4-yl)methyl)-2-oxobenzo[cd]indol-1(2H)-yl)piperidine-2,6-dione] | > 9.00
CC1(C(=O)N2CCC(C)(n3cc(Cc4ccc5c6c(cccc46)C(=O)N5C4CCC(=O)NC4=O)cn3)CC2)CC1 (stereo not shown) [Compound 83, 3-(6-((1-(4-methyl-1-(1-methylcyclopropane-1-carbonyl)piperidin-4-yl)-1H-pyrazol-4-yl)methyl)-2-oxobenzo[cd]indol-1(2H)-yl)piperidine-2,6-dione] | > 9.00
COC(C)(C)C(=O)N1CCC(C)(n2cc(Cc3ccc4c5c(cccc35)C(=O)N4C3CCC(=O)NC3=O)cn2)CC1 (stereo not shown) [Compound 84, 3-(6-((1-(1-(2-methoxy-2-methylpropanoyl)-4-methylpiperidin-4-yl)-1H-pyrazol-4-yl)methyl)-2-oxobenzo[cd]indol-1(2H)-yl)piperidine-2,6-dione] | > 9.00
COCC(C)(C)C(=O)N1CCC(C)(n2cc(Cc3ccc4c5c(cccc35)C(=O)N4C3CCC(=O)NC3=O)cn2)CC1 (stereo not shown) [Compound 85, 3-(6-((1-(1-(3-methoxy-2,2-dimethylpropanoyl)-4-methylpiperidin-4-yl)-1H-pyrazol-4-yl)methyl)-2-oxobenzo[cd]indol-1(2H)-yl)piperidine-2,6-dione] | > 9.00
